# Experiments:
# Assay type in all cases: in vivo
# Avena fatua = assay: Pre-emergence herbicidal action, AVEFA; details: comparison with WO 2011035874, Table G
# In short: (§1)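 Percent herbicidal activity rated by eye 3 weeks after pre-emergence soil-surface application, compared with untreated pots. Seeds sat under sandy loam; sprays carried 0.2% wetting agent.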
# Amaranthus retroflexus [1] = assay: Pre-emergence herbicidal action, AMARE; details: comparison with WO 2011035874, Table H
# In short: as §1
# Alopecurus myosuroides = assay: Pre-emergence herbicidal action, ALOMY; details: comparison with WO 2011035874, Table G
# In short: as §1
# Polygonum convolvulus = assay: Pre-emergence herbicidal action, POLCO; details: comparison with WO 2011035874, Table H
# Description: (§2) 1. Pre-Emergence Herbicidal Action Against Harmful Plants Seeds of monocotyledonous and dicotyledonous weed plants and crop plants are laid out in sandy loam soil in wood-fiber pots and covered with soil. The compounds of the invention, formulated in the form of wettable powders (WP) or as emulsion concentrates (EC), are then applied to the surface of the covering soil in the form of an aqueous suspension or emulsion at a water application rate equating to […], with addition of 0.2% wetting agent. After the treatment, the pots are placed in a greenhouse and kept under good growth conditions for the trial plants. The damage to the test plants is scored visually after a test period of 3 weeks by comparison with untreated controls (herbicidal activity in percent (%): 100% activity=the plants have died, 0% activity=like control plants).
# (§3) For comparison, the herbicidal activity of numerous compounds according to the invention was tested with the structurally closest compounds known from the documents WO 2011/035874, WO 2012/028579 and WO 2012/126932, by the pre- and post-emergence method.
# ECHCG = assay: Pre-emergence herbicidal action, ECHCG; details: comparison with WO 2011035874, Table G
# Description: as §2
# Pharbitis purpureum = assay: Post-emergence herbicidal action, PHBPU; details: 80 g/ha
# In short: (§4)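 Herbicidal effect is rated visually as percent versus untreated plants (100% = dead, 0% = like control) about 3 weeks after spraying. Plants were sown in sandy loam in the greenhouse and sprayed on green parts at the one-leaf stage, 2 to 3 weeks post-sowing.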
# Stellaria media [2] = assay: Post-emergence herbicidal action, STEME; details: 80 g/ha
# In short: as §4
# Abutilon theophrasti [3] = assay: Pre-emergence herbicidal action, ABUTH; details: comparison with WO 2011035874, Table G
# In short: as §1
# Stellaria media [4] = assay: Pre-emergence herbicidal action, STEME; details: comparison with WO 2011035874, Table H
# In short: as §1
# Viola tricolor [5] = assay: Pre-emergence herbicidal action, VIOTR; details: comparison with WO 2011035874, Table H
# In short: as §1
# Cyperus serotinus = assay: Pre-emergence herbicidal action, CYPES; details: comparison with WO 2011035874, Table G
# In short: as §1
# Viola tricolor [6] = assay: Post-emergence herbicidal action, VIOTR; details: 80 g/ha
# In short: as §4
# Veronica persica [7] = assay: Pre-emergence herbicidal action, VERPE; details: comparison with WO 2011035874, Table H
# Description: as §2, §3
# Setaria viridis = assay: Pre-emergence herbicidal action, SETVI; details: comparison with WO 2011035874, Table G
# In short: as §1
# Matricaria inodora = assay: Post-emergence herbicidal action, MATIN; details: 80 g/ha
# Procedure: (§5) Seeds of monocotyledonous and dicotyledonous weed and crop plants are laid out in sandy loam soil in wood-fiber pots, covered with soil and cultivated in a greenhouse under good growth conditions. 2 to 3 weeks after sowing, the test plants are treated at the one-leaf stage. The compounds of the invention, formulated in the form of wettable powders (WP) or as emulsion concentrates (EC), are then sprayed onto the green parts of the plants in the form of an aqueous suspension or emulsion at a water application rate equating to […], with addition of 0.2% wetting agent. After the test plants have been left to stand in the greenhouse under optimal growth conditions for about 3 weeks, the action of the preparations is assessed visually in comparison to untreated controls (herbicidal action in percent (%): 100% activity=the plants have died, 0% activity=like control plants). […] At the same time, inventive compounds leave Gramineae crops such as barley, wheat, rye, millet/sorghum, corn or rice virtually undamaged when applied post-emergence, even at high active compound dosages. In addition, some substances are also harmless to dicotyledonous crops such as soya, cotton, oilseed rape, sugar beet or potatoes. Some of the compounds according to the invention have high selectivity and are therefore suitable for controlling unwanted vegetation in agricultural crops by the post-emergence method. The data of Tables C and D below illustrate, in an exemplary manner, the […] herbicidal action of the compounds according to the invention, the herbicidal activity being stated in percent.
# as §3
# Amaranthus retroflexus [8] = assay: Post-emergence herbicidal action, AMARE; details: 80 g/ha, comparison with WO 2011035874, Table E
# In short: as §4
# Veronica persica [9] = assay: Post-emergence herbicidal action, VERPE; details: 80 g/ha, comparison with WO 2011035874, Table E
# Procedure: as §5, §3
# Abutilon theophrasti [10] = assay: Post-emergence herbicidal action, ABUTH; details: 80 g/ha, comparison with WO 2011035874, Table E
# In short: as §4
# [11] = comparison with WO2011035874, Table F
# [12] = comparison with WO 2011035874, Table E
compound,measurement,setting,value
CC[S+]([O-])c1c(C(F)F)ccc(C(=O)Nc2nnnn2C)c1I (stereo not drawn) [Example 1-77],Herbicidal efficacy against AVEFA,Avena fatua; 320 g/ha,0%
same,Herbicidal efficacy against AMARE,Amaranthus retroflexus [1]; 320 g/ha,100%
same,Herbicidal efficacy against ALOMY,Alopecurus myosuroides; 320 g/ha,10%
same,Herbicidal efficacy against POLCO,Polygonum convolvulus; 320 g/ha,30%
same,Herbicidal efficacy against ECHCG,ECHCG; 320 g/ha,70%
same,Herbicidal efficacy against PHBPU,Pharbitis purpureum; [11],40%
same,Herbicidal efficacy against STEME,Stellaria media [2]; [11],80%
same,Herbicidal efficacy against ABUTH,Abutilon theophrasti [3]; 320 g/ha,100%
same,Herbicidal efficacy against STEME,Stellaria media [4]; 320 g/ha,80%
same,Herbicidal efficacy against VIOTR,Viola tricolor [5]; 320 g/ha,60%
same,Herbicidal efficacy against CYPES,Cyperus serotinus; 320 g/ha,30%
same,Herbicidal efficacy against VIOTR,Viola tricolor [6]; [11],60%
same,Herbicidal efficacy against VERPE,Veronica persica [7]; 320 g/ha,90%
same,Herbicidal efficacy against SETVI,Setaria viridis; 320 g/ha,20%
same,Herbicidal efficacy against MATIN,Matricaria inodora; [11],0%
Cn1nnnc1NC(=O)c1ccc(C(F)F)c(S(=O)(=O)CC2CC2)c1I [Example 1-81],Herbicidal efficacy against AVEFA,Avena fatua; 80 g/ha,40%
same,Herbicidal efficacy against AMARE,Amaranthus retroflexus [1]; 80 g/ha,60%
same,Herbicidal efficacy against ALOMY,Alopecurus myosuroides; 80 g/ha,0%
same,Herbicidal efficacy against POLCO,Polygonum convolvulus; 80 g/ha,10%
same,Herbicidal efficacy against ECHCG,ECHCG; 80 g/ha,10%
same,Herbicidal efficacy against AMARE,Amaranthus retroflexus [8],60%
same,Herbicidal efficacy against VERPE,Veronica persica [9],30%
same,Herbicidal efficacy against PHBPU,Pharbitis purpureum; [12],10%
same,Herbicidal efficacy against STEME,Stellaria media [2]; [12],0%
same,Herbicidal efficacy against ABUTH,Abutilon theophrasti [3]; 80 g/ha,20%
same,Herbicidal efficacy against STEME,Stellaria media [4]; 80 g/ha,50%
same,Herbicidal efficacy against ABUTH,Abutilon theophrasti [10],30%
same,Herbicidal efficacy against VIOTR,Viola tricolor [5]; 80 g/ha,90%
same,Herbicidal efficacy against CYPES,Cyperus serotinus; 80 g/ha,0%
same,Herbicidal efficacy against VIOTR,Viola tricolor [6]; [12],0%
same,Herbicidal efficacy against VERPE,Veronica persica [7]; 80 g/ha,70%
same,Herbicidal efficacy against SETVI,Setaria viridis; 80 g/ha,10%
same,Herbicidal efficacy against MATIN,Matricaria inodora; [12],10%
